Results: patent US11109590B2 (priority 2017, dated 2021)
Where two headings read alike, the source gives them in different places.

Tests used:
[1] = test system: Legionella pneumophilia (ATCC 33152); assay type: cell-based; settings: pH 8.0, 0.005% yeast extract
[2] = test system: P. aeruginosa (PA01) in biofilm; assay: Antimicrobial efficacy in relation to bacteria in biofilm (24 hours old); assay type: cell-based; settings: for Log10 reduction factor: biofilm, starting number > 8 log10 cfu/cm^2

| Compound | Log10 reduction factor ([1]; 7.50% aqueous solution, 15 min exposure) [Log10] | Log10 reduction factor ([1]; 7.50% aqueous solution, 30 min exposure) [Log10] | Log10 reduction factor ([1]; 7.50% aqueous solution, 60 min exposure) [Log10] | Log10 reduction factor ([1]; 7.50% aqueous solution, 120 min exposure) [Log10] | Log10 reduction factor ([2]; 1.7% solution, 5 min exposure) [Log10] | Log10 reduction factor ([2]; 1.7% solution, 15 min exposure) [Log10] | Log10 reduction factor ([2]; 1.7% solution, 30 min exposure) [Log10] | Log10 reduction factor ([2]; 1.7% solution, 60 min exposure) [Log10] | antimicrobial efficacy in biofilms (in words) ([2]; 1.7%, compared to 17% H2O2 and 100% PAM) | antimicrobial efficacy in relation to biofilms (in words) ([2]; 17%) | Log10 reduction factor ([2]; 17% aqueous solution, 5 min exposure) [Log10] | Log10 reduction factor ([2]; 17% aqueous solution, 15 min exposure) [Log10] | Log10 reduction factor ([2]; 17% aqueous solution, 30 min exposure) [Log10] | Log10 reduction factor ([2]; 17% aqueous solution, 60 min exposure) [Log10] | antimicrobial effect in relation to the test organisms in biofilms 24 hours old (in words) ([2]; 17% solution, after just 5 minutes of exposure time) | Log10 reduction factor ([1]; aqueous 1% solution, 15 min exposure) [Log10] | Log10 reduction factor ([1]; aqueous 1% solution, 30 min exposure) [Log10] | Log10 reduction factor ([1]; aqueous 1% solution, 60 min exposure) [Log10] | Log10 reduction factor ([1]; aqueous 1% solution, 120 min exposure) [Log10] |
| --- | --- | --- | --- | --- | --- | --- | --- | --- | --- | --- | --- | --- | --- | --- | --- | --- | --- | --- | --- |
| OO [H2O2, hydrogen peroxide] | 2.24 | 3.44 | 4.25 | 4.83 | 0.84 | 1.62 | 1.95 | 2.53 | significant loss of antimicrobial efficacy | high and substantially equivalent | >8.00 | >8.00 | >8.00 | >8.00 | high antimicrobial effect | – | – | – | – |
| polyoxyethylene (20) sorbitan monooleate [PSb 80] | – | – | – | – | – | – | – | – | – | – | – | – | – | – | – | 0.06 | 0.09 | 0.09 | 0.11 |
